# Tests used:
# POROL (common purslane) = assay: Pre-emergence herbicidal activity, warm season; type: in vivo, Portulaca oleracea; conditions: GR80 = lowest tested rate (300, 100, 30, 10 g/ha) with 80% or greater inhibition; approx. 14 days after treating; 30/21° C.
# Summary of the method: (§1)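 Seeds sown in sterilised fertilised topsoil received surface-applied compound in 50:50 acetone/water, typically at 300, 100, 30 and 10 g/ha, then greenhouse-grown at 30/21° C (warm-season species) or 18/13° C (cool-season species). Percent inhibition versus untreated plants was scored at about 14 days, giving GR80; an asterisk marks activity short of 80% at the top rate.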
# SETFA (giant foxtail) = assay: Pre-emergence herbicidal activity, warm season; type: in vivo, Setaria faberi
# Summary of the method: (§2)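 GR80 values derive from percent inhibition relative to untreated plants, read roughly 14 days after sowing and pre-emergence soil-surface treatment (compound in 50:50 acetone/water; rates typically 10, 30, 100, 300 g/ha). Warm-season weeds grew at 30/21° C day/night, cool-season ones at 18/13° C; an asterisk marks activity without reaching 80% at the highest rate.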
# [1] = tested on: BRAPP (broadleaf signalgrass); assay: Pre-emergence herbicidal activity, warm season; type: in vivo, Brachiaria platyphylla
# Summary of the method: as §2
# [2] = tested on: GALAP (catchweed bedstraw); assay: Pre-emergence herbicidal activity, cool season; type: in vivo, Galium aparine; conditions: lowest tested rate with 80% or greater inhibition; rates 300, 100, 30, 10 g/ha; about 14 days
# Summary of the method: as §1
# PANDI (fall panicum) = assay: Pre-plant incorporated (PPI) herbicidal activity, warm season; type: in vivo, Panicum dichotomiflorum; conditions: pre-plant incorporated; lowest tested rate with 80% or greater inhibition; about 14 days
# Summary of the method: (§3)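 Compound-laden cover soil (organic solvent spray, mixed in) over seeds; 0.64 cm overhead water initially. Evaluated ~14 days: % inhibition relative to untreated.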
# SINAR (wild mustard) = assay: Pre-plant incorporated (PPI) herbicidal activity, cool season; type: in vivo, Sinapis arvensis
# Summary of the method: as §3
# [3] = tested on: VERPE (creeping speedwell); assay: as above; type: in vivo, Veronica persicaria; conditions: pre-plant incorporated; lowest tested rate with 80% or greater inhibition; about 14 days
# Summary of the method: as §3
# SASKR (russian thistle) = assay: as above; type: in vivo, Salsola kali
# Summary of the method: as §3
# [4] = tested on: AGSST (creeping bentgrass); assay: as above; type: in vivo, Agrostis stolonifera
# Summary of the method: as §3
# rice (ORYSA) = assay: Selectivity test, PPI, warm season crop; type: in vivo, Oryza sativa; conditions: Oryza sativa, PPI application, read-out: Percent inhibition ORYSA
# Summary of the method: (§4)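 Pre-plant incorporated: compound in organic solvent sprayed onto cover soil, mixed and laid over seeds; untreated soil for controls. Greenhouse after treatment: warm season 30/21° C., cool season 18/13° C. day/night. Percent inhibition versus untreated plants scored about 14 days after planting.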
# oilseed rape (BRSNS) = assay: Selectivity test, PPI, cool season crop; type: in vivo, Brassica napus; conditions: Brassica napus, PPI application, read-out: Percent inhibition BRSNS
# Summary of the method: as §4
# [5] = GR80 = lowest tested rate (300, 100, 30, 10 g/ha) with 80% or greater inhibition, approx. 14 days after treating, 30/21° C.
# [6] = pre-plant incorporated, lowest tested rate with 80% or greater inhibition, about 14 days
structure (smiles),measurement,setting,value
"CCN(CC)C(=O)n1cnc(S(=O)(=O)C(F)(F)Br)n1 [Example 1, 3-(bromodifluoromethylsulfonyl)-1-(N,N-diethylcarbamoyl)-1,2,4-triazole]",Pre-emergence activity (GR80) POROL,POROL (common purslane),100 g/ha
same,Pre-emergence activity (GR80) SETFA,SETFA (giant foxtail); [5],100 g/ha
same,inhibition at 10 g/ha,"SETFA (giant foxtail); Setaria faberi, pre-emergence application, 10 g/ha, read-out: Percent inhibition, weed SETFA",0%
same,inhibition at 30 g/ha,"SETFA (giant foxtail); Setaria faberi, pre-emergence application, 30 g/ha, read-out: Percent inhibition, weed SETFA",0%
same,inhibition at 100 g/ha,"SETFA (giant foxtail); Setaria faberi, pre-emergence application, 100 g/ha, read-out: Percent inhibition, weed SETFA",40%
same,inhibition at 300 g/ha,"SETFA (giant foxtail); Setaria faberi, pre-emergence application, 300 g/ha, read-out: Percent inhibition, weed SETFA",100%
same,inhibition at 900 g/ha,"SETFA (giant foxtail); Setaria faberi, pre-emergence application, 900 g/ha, read-out: Percent inhibition, weed SETFA",100%
same,Pre-emergence activity (GR80) BRAPP,[1]; [5],"* (activity observed, at least at highest rate, but <80% inhibition)"
same,inhibition at 10 g/ha,"[1]; Urochloa platyphylla, pre-emergence application, 10 g/ha, read-out: Percent inhibition, weed BRAPP",0%
same,inhibition at 30 g/ha,"[1]; Urochloa platyphylla, pre-emergence application, 30 g/ha, read-out: Percent inhibition, weed BRAPP",0%
same,inhibition at 100 g/ha,"[1]; Urochloa platyphylla, pre-emergence application, 100 g/ha, read-out: Percent inhibition, weed BRAPP",40%
same,inhibition at 300 g/ha,"[1]; Urochloa platyphylla, pre-emergence application, 300 g/ha, read-out: Percent inhibition, weed BRAPP",70%
same,"Pre-emergence activity GR80, GALAP",[2],100 g/ha
same,"PPI activity GR80, PANDI",PANDI (fall panicum),100 g/ha
same,inhibition at 30 g/ha,"SINAR (wild mustard); Brassica, weed, PPI application, 30 g/ha, read-out: Percent inhibition SINAR",100%
same,inhibition at 100 g/ha,"SINAR (wild mustard); Brassica, weed, PPI application, 100 g/ha, read-out: Percent inhibition SINAR",100%
same,inhibition at 300 g/ha,"SINAR (wild mustard); Brassica, weed, PPI application, 300 g/ha, read-out: Percent inhibition SINAR",100%
same,inhibition at 900 g/ha,"SINAR (wild mustard); Brassica, weed, PPI application, 900 g/ha, read-out: Percent inhibition SINAR",100%
same,"PPI activity GR80, SINAR",SINAR (wild mustard); [6],100 g/ha
same,"PPI activity GR80, VERPE",[3],30 g/ha
same,inhibition at 30 g/ha,"SASKR (russian thistle); Salsola kali, weed, PPI application, 30 g/ha, read-out: Percent inhibition SASKR",80%
same,inhibition at 100 g/ha,"SASKR (russian thistle); Salsola kali, weed, PPI application, 100 g/ha, read-out: Percent inhibition SASKR",100%
same,inhibition at 300 g/ha,"SASKR (russian thistle); Salsola kali, weed, PPI application, 300 g/ha, read-out: Percent inhibition SASKR",100%
same,inhibition at 900 g/ha,"SASKR (russian thistle); Salsola kali, weed, PPI application, 900 g/ha, read-out: Percent inhibition SASKR",100%
same,"PPI activity GR80, SASKR",SASKR (russian thistle); [6],100 g/ha
same,inhibition at 30 g/ha,"[4]; Agrostis stolonifera, weed, PPI application, 30 g/ha, read-out: Percent inhibition AGSST",100%
same,inhibition at 100 g/ha,"[4]; Agrostis stolonifera, weed, PPI application, 100 g/ha, read-out: Percent inhibition AGSST",100%
same,inhibition at 300 g/ha,"[4]; Agrostis stolonifera, weed, PPI application, 300 g/ha, read-out: Percent inhibition AGSST",100%
same,inhibition at 900 g/ha,"[4]; Agrostis stolonifera, weed, PPI application, 900 g/ha, read-out: Percent inhibition AGSST",100%
same,"PPI activity GR80, AGSST",[4]; [6],30 g/ha
same,inhibition at 10 g/ha,rice (ORYSA); 10 g/ha,0%
same,inhibition at 30 g/ha,rice (ORYSA); 30 g/ha,0%
same,inhibition at 100 g/ha,rice (ORYSA); 100 g/ha,40%
same,inhibition at 300 g/ha,rice (ORYSA); 300 g/ha,60%
same,inhibition at 900 g/ha,rice (ORYSA); 900 g/ha,90%
same,inhibition at 30 g/ha,oilseed rape (BRSNS); 30 g/ha,60%
same,inhibition at 100 g/ha,oilseed rape (BRSNS); 100 g/ha,20%
same,inhibition at 300 g/ha,oilseed rape (BRSNS); 300 g/ha,99%
same,inhibition at 900 g/ha,oilseed rape (BRSNS); 900 g/ha,100%

# Reference: US6461997B1, “Triazole sulfones having herbicidal activity” (Monsanto Technology LLC, priority 1999, dated 2002)
